{"source": "patent US8476275B2", "about": "“N-[piperazinyl hetaryl]arylsufonamide compounds with affinity for the dopamine D3 receptor” (Abbott GmbH & Co. KG, priority 2003, dated 2013)", "key": {"[1]": {"target": "T1, human dopamine D3 receptors (Homo sapiens, UniProt P35462)", "T1 construct": "expressed in transfected cells", "T1 sequence (P35462 whole entry)": "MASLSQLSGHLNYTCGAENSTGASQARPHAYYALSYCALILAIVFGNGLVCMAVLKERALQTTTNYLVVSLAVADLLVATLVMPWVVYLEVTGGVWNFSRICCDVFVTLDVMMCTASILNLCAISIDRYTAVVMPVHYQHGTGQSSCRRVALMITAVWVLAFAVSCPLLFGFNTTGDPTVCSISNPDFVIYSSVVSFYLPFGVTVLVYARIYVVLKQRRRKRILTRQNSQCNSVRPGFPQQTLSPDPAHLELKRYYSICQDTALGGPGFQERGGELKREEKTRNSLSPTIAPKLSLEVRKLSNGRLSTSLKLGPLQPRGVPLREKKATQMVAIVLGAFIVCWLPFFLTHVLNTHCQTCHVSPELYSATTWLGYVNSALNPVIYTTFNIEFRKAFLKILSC", "assay": "Dopamine D3 receptor binding, displacement of [125I]-iodosulpride", "conditions": "membranes of HEK-293 cells stably expressing human D3 receptor; 0.1 nM [125I]-iodosulpride; 25° C., 60 minutes", "method": "(§1) The substance to be tested was either dissolved in methanol/Chremophor® (BASF-AG) or in dimethyl sulfoxide and then diluted with water to the desired concentration.\n(§2) Each assay mixture was run in triplicate.\nThe incubation buffer contained 50 mM tris, 120 mM NaCl, 5 mM KCl, 2 mM CaCl2, 2 mM MgCl2 and 0.1% bovine serum albumin, 10 μM quinolone and 0.1% ascorbic acid (prepared fresh daily). The buffer was adjusted to pH 7.4 with HCl.\n(§3) Measurement and Analysis:\n(§4) After having been incubated at 25° C. for 60 minutes, the assay mixtures were filtered through a Whatman GF/B glass fiber filter under vacuum using a cell collecting device. The filters were transferred to scintillation viols using a filter transfer system. After 4 ml of Ultima Gold® (Packard) have been added, the samples were shaken for one hour and the radioactivity was then counted in a Beta-Counter (Packard, Tricarb 2000 or 2200CA). The cpm values were converted into dpm using a standard quench series and the program belonging to the instrument.\n(§5) The inhibition curves were analyzed by means of iterative nonlinear regression analysis using the Statistical Analysis System (SAS) which is similar to the “LIGAND” program described by Munson and Rodbard."}, "[2]": {"target": "T2, human dopamine D2L receptors (long isoform) (Homo sapiens, UniProt P14416)", "T2 construct": "expressed in transfected cells", "T2 sequence (P14416 whole entry, canonical isoform)": "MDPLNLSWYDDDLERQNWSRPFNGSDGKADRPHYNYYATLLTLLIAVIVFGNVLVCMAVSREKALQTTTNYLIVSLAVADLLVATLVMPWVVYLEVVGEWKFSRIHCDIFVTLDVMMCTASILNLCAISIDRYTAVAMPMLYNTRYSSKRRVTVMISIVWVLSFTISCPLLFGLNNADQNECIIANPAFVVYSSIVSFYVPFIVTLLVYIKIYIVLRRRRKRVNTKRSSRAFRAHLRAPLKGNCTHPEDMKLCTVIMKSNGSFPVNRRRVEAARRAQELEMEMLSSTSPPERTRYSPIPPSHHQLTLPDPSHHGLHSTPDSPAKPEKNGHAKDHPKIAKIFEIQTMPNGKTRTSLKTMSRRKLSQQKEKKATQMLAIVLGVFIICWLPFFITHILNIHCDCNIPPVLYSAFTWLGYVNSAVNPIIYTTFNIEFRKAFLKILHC", "assay": "Dopamine D2L receptor binding, displacement of [125I] iodospiperone", "conditions": "ratio, HEK-293 membranes, 0.01 nM [125I] iodospiperone", "method": "as §1, §2\nThe incubation buffer contained 50 mM tris, 120 mM NaCl, 5 mM KCl, 2 mM CaCl2, 2 mM MgCl2 and 0.1% bovine serum albumin. The buffer was adjusted to pH 7.4 with HCl.\nas §3, §4, §5"}}}
{"substance": "N-[2-(4-Allylpiperazin-1-yl)pyridin-5-yl]-4-(N-pyrrolidinyl)benzene-sulfonamide fumarate [Example 42]", "values": [{"measurement": "Ki", "setting": "[1]", "value": 5.3, "unit": "nM"}, {"measurement": "Selectivity vs. D2L", "setting": "[2]", "value": 33}]}
